In ChEMBL document CHEMBL1201862, “PubChem BioAssay data set” (2004):
The source made the active and inactive calls.

Columns and labels:
[1] = biological target: T1, Estrogen receptor beta (Homo sapiens, UniProt Q92731);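 further: recombinant ER-beta bound to coactivator SRC1 peptide in presence of estradiol agonist; inhibitors block coactivator peptide binding and lower the FRET signal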
[2] = biological target: T2, Estrogen receptor (Homo sapiens, UniProt P03372);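 further: potency for inhibiting coactivator peptide recruitment to the receptor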
T2 sequence (P03372 whole entry): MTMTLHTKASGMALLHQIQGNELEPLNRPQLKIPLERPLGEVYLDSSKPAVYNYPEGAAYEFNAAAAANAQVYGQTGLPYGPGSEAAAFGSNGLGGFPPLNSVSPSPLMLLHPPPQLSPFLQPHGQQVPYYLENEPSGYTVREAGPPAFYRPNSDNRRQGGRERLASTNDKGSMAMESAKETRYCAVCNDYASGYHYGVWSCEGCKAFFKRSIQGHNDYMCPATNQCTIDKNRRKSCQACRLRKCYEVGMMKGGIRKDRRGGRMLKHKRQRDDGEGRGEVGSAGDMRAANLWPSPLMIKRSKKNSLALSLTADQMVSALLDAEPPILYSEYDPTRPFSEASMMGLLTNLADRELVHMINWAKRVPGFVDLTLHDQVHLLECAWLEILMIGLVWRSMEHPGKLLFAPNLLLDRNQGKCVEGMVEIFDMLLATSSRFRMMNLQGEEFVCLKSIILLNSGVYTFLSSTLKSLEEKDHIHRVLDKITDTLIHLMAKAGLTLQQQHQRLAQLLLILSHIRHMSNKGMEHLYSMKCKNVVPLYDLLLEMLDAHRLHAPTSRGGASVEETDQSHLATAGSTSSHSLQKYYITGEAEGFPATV

[3] = biological target: Bcl-2-like protein 10 (Homo sapiens, UniProt Q9HD36); assay: displacers of TR3 peptide from Bcl-B, primary screen, selectivity assay for Bfl-1 inhibitor project, biochemical, fluorescence polarization, FITC-TR3 peptide (AID 748);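 further: fluorescence polarization from a fluorescein-labelled TR3 peptide binding purified Bcl-B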
Bcl-2-like protein 10, sequence (Q9HD36 whole entry, the tested form may be a part): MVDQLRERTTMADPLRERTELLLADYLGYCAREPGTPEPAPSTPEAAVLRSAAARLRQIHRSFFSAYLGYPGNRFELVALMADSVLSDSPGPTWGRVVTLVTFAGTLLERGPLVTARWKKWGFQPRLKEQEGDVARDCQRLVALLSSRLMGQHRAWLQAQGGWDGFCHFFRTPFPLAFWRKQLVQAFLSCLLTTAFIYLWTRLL

[4] = biological target: T3, Carboxy-terminal domain RNA polymerase II polypeptide A small phosphatase 1 (Homo sapiens, UniProt Q9GZU7); assay: inhibitors of CTDSP1, concentration-response testing, biochemical assay, absorbance-based, actives from ultra-high-throughput screening (AID 540297); assay type: functional
T3 sequence (Q9GZU7 whole entry): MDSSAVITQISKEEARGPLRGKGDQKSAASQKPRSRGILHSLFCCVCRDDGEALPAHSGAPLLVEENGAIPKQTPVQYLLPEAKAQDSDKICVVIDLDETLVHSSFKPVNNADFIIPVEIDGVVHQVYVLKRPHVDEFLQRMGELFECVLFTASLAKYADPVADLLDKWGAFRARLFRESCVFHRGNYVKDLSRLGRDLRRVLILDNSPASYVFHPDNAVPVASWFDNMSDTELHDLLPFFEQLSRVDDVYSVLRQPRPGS

[5] = biological target: T1, Estrogen receptor beta; assay: ERβ–SRC-3 coactivator interaction inhibitors, confirmation, orthogonal assay, biochemical, ELISA, streptavidin-HRP readout (AID 1060)
[6] = microbe, parasite or virus in culture; assay type: functional; settings: Mycobacterium tuberculosis
[7] = biological target: T4, Mannose-6-phosphate isomerase (Homo sapiens, UniProt P34949); assay: inhibitors of human PMI, primary screen, biochemical, fluorescence intensity, coupled assay (AID 1209)
T4 sequence (P34949 whole entry): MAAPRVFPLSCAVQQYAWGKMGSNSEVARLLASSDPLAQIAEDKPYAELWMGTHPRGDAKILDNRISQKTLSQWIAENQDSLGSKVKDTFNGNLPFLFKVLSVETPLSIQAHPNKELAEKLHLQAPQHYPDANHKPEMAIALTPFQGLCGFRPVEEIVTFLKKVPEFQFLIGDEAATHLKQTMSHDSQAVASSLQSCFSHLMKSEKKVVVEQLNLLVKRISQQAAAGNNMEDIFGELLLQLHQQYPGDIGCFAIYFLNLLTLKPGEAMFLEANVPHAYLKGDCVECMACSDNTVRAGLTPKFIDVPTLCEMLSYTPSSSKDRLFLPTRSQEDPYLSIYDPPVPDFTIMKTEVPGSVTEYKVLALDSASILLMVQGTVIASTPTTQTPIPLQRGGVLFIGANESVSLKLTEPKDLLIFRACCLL

[8] = biological target: C-C chemokine receptor type 6 (Homo sapiens, UniProt P51684); assay: CCR6 receptor antagonists, dose response, cell-based, luminescent beta-arrestin readout (AID 504728); assay type: functional
C-C chemokine receptor type 6, sequence (P51684 whole entry): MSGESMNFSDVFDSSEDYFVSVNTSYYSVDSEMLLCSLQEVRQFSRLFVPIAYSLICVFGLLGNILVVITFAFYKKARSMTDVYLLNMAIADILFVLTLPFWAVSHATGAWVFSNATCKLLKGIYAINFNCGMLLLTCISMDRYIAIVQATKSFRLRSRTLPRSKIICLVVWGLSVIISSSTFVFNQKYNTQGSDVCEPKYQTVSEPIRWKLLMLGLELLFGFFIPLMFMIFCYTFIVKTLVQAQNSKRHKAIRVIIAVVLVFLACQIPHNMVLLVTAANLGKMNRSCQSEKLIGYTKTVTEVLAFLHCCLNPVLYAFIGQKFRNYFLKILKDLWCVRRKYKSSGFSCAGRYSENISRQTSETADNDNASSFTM

[9] = biological target: T4, Mannose-6-phosphate isomerase; assay: human PMI inhibitors, high substrate, primary screen, biochemical, fluorescence intensity, high mannose 6-phosphate (AID 1220)
[10] = biological target: T5, Heat shock factor protein 1 (Mus musculus, UniProt P38532); assay: HSF1 potentiators in luciferase reporter cells, confirmation, cell-based, NIH3T3, luminescence, dose retest (AID 435004); assay type: functional;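 further: stress induced by proteasome inhibitor MG132 added 30 min after compound; luciferase reporter driven by HSF1 response element in NIH3T3 cells; actives raise luminescence as potentiators of the MG132 stress response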
T5 sequence (P38532 whole entry): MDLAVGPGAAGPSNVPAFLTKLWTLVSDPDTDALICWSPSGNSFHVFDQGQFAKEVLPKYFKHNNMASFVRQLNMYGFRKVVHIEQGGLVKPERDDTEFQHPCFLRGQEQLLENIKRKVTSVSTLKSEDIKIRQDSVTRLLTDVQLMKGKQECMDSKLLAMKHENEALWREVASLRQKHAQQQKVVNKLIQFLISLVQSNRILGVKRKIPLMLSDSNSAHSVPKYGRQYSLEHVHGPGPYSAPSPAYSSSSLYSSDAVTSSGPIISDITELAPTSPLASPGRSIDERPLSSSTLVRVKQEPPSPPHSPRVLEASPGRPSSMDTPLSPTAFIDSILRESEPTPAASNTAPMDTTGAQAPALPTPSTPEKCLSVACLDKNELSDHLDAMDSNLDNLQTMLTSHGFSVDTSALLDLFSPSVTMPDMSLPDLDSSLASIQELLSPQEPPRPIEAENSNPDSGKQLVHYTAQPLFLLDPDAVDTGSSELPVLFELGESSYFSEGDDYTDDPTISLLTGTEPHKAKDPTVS

[11] = biological target: Galanin receptor type 2 (Homo sapiens, UniProt O43603); assay: Dose Response cell-based high-throughput screening assay to identify antagonists of galanin receptor 2 (GALR2). [Related pubchem assays: 828, 866 ]; assay type: functional
Galanin receptor type 2, sequence (O43603 whole entry): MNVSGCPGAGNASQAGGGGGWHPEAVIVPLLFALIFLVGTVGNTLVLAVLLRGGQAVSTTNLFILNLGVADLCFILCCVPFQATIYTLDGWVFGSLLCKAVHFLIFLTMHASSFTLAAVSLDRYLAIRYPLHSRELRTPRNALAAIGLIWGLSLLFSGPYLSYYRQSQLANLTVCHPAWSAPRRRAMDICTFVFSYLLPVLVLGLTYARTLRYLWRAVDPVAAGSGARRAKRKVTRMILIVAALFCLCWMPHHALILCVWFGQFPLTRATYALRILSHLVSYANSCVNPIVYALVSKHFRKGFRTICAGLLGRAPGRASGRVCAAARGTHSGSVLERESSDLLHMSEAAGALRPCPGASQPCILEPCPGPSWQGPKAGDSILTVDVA

[12] = biological target: Beta-galactosidase (Escherichia coli, UniProt Q8VNN2); assay: beta-galactosidase enzyme inhibitors and activators, dose response, artefact control for CCR6 antagonist project, biochemical, E. coli enzyme, set 3 (AID 504712); assay type: functional
Beta-galactosidase, sequence (Q8VNN2 whole entry): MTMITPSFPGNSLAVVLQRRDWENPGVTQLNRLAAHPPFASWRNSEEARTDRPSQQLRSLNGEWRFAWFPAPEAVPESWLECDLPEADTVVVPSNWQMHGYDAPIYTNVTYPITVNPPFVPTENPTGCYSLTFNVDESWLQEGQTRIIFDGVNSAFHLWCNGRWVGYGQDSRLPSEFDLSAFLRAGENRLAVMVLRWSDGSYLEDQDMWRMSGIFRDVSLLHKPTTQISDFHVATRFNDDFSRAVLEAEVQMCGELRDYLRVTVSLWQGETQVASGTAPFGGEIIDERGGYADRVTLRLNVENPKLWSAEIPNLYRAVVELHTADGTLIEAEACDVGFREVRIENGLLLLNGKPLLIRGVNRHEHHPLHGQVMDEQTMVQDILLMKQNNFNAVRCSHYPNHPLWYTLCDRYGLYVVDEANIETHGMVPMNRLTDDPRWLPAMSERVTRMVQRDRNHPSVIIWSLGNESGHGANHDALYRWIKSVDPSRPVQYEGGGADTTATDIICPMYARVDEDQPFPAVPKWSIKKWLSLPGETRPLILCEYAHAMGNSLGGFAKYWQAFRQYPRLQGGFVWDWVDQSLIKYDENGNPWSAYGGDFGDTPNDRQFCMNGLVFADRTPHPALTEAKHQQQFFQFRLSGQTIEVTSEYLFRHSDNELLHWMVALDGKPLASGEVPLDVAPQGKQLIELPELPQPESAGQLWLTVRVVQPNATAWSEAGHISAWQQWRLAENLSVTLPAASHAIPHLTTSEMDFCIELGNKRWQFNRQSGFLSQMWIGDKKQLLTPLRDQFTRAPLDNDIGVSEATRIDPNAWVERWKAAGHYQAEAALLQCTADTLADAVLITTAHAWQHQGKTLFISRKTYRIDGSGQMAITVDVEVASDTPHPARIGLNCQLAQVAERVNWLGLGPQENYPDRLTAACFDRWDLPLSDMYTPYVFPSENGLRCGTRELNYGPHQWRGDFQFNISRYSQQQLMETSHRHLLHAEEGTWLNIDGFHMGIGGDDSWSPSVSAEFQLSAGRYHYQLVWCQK

[13] = system: HeLa; assay: HeLa cell cytotoxicity, dose response, cytotoxicity control, 24 h, cherry-picked samples (AID 504726); assay type: functional, cell-based; settings: Homo sapiens;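 further: potency for cytotoxicity as loss of luminescence signal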
[14] = system: Jurkat; assay: antigen receptor-induced NF-kB inhibitors, dose response, Jurkat, luciferase reporter, luminescence, B- and T-cell (AID 489004); assay type: functional, cell-based; settings: Homo sapiens;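 further: NF-kB luciferase reporter Jurkat cells stimulated with PMA plus ionomycin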
[15] = biological target: T6, Luciferin 4-monooxygenase (Photinus pyralis, UniProt P08659); assay: In vitro luciferase assay using purified luciferase. [Related pubchem assays: 1299, 1270, 1295, 1375, 1287, 1281, 1293, 1291, 1289, 1280, 465, 1364, 1282, 1372, 1365, 1370, 1367, 1366, 1266, 1373, 1292, 1290, 1302, 1371, 1283, 1271, 1294, 1374, 1368, 1369 ]
T6 sequence (P08659 whole entry): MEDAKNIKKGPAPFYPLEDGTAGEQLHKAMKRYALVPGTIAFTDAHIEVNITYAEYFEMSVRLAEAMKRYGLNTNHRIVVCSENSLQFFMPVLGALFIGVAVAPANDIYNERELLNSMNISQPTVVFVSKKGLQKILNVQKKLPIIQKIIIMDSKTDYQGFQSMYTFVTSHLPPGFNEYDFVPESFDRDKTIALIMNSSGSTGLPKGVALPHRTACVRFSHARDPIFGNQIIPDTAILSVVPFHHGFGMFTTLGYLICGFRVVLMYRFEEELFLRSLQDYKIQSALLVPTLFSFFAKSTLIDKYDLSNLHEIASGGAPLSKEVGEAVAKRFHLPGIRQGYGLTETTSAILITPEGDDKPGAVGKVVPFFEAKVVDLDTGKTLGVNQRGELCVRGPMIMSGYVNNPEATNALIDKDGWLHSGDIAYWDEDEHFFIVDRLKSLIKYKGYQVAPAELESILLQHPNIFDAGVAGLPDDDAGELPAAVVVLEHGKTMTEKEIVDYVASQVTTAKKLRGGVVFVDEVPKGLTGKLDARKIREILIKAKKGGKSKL

[16] = biological target: T5, Heat shock factor protein 1; assay: inhibition of MG132-induced HSE-luciferase signal, confirmation, cell-based, NIH3T3, luminescence, dose retest (AID 2382); assay type: functional;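 further: NIH3T3 fibroblasts with HSF1-driven luciferase reporter stressed by proteasome inhibitor MG132; luminescence from HSF1-driven luciferase expression after 8 hours of MG132 stress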
[17] = cytotoxicity in HEK-293T NF-kB-Luc cells, dose response, cytotoxicity control for B/T-cell NF-kB inhibitor project, cell-based, uHTS hits (AID 489019); assay type: functional;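 further: IC50 reflects cytotoxicity as loss of cell viability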
[18] = biological target: T7, Microphthalmia-associated transcription factor (Homo sapiens, UniProt O75030); assay: TRPM1 promoter luciferase signal decrease, dose response, MITF inhibitor project, cell-based, SK-MEL-5, cherry-picked, set 3 (AID 493073); assay type: functional
T7 sequence (O75030 whole entry): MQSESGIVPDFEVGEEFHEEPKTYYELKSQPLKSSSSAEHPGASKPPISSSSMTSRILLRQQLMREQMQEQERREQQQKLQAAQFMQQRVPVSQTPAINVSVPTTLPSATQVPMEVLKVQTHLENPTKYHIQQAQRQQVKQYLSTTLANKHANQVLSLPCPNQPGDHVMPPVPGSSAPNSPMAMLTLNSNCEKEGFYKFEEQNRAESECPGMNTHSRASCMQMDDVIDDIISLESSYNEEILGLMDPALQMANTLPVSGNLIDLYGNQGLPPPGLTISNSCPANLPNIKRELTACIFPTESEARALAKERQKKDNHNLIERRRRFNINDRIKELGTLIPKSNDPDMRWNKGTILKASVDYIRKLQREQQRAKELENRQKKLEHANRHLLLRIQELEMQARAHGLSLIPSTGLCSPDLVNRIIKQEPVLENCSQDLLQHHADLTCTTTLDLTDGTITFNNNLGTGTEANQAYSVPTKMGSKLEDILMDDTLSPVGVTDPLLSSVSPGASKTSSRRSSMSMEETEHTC

[19] = system: HEK293; assay: PMA/Ionomycin induced NF-kB luciferase assay in 293- NF-kB-Luc stable cells. [Related pubchem assays: 1299, 1270, 1295, 1375, 1287, 1281, 1293, 1291, 1289, 1280, 465, 1364, 1282, 1372, 1365, 1370, 1367, 1366, 1269, 1373, 1292, 1290, 1302, 1371, 1283, 1271, 1294, 1374, 1368, 1369 ]; assay type: functional, cell-based; settings: Homo sapiens
[20] = biological target: T6, Luciferin 4-monooxygenase; assay: Counter Screen for Luciferase-based Assay Positives. [Related pubchem assays: 620, 618, 411 ]
[21] = system: HEK293; assay: Cytotoxicity assay in HEK293 cells. [Related pubchem assays (depositor defined):AID1266, AID1269, AID1270, AID1271, AID1280, AID1281, AID1282, AID1283, AID1287, AID1289, AID1290, AID1291, AID1292, AID1293, AID1294, AID1295, AID1299, AID1302, AID1364, AID1365, AID1366, AID1367, AID1369, AID1370, AID1371, AID1372, AID1373, AID1374, AID1375, AID1384 …; assay type: functional, cell-based; settings: Homo sapiens
[22] = system: HT-1080; assay: cytotoxicity in HT1080 fibrosarcoma cells, cell-based, fluorescence readout (AID 620); assay type: functional; settings: Homo sapiens
[23] = Cytotoxicity screening for potential Inhibitors of Bacterial Capsule Biogenesis. [Related pubchem assays (depositor defined):AID488970]; assay type: functional
[24] = biological target: T8, Eukaryotic translation initiation factor 2-alpha kinase 3 (Homo sapiens, UniProt Q9NZJ5); assay: Dose response cell-based high-throughput screening assay to measure PERK inhibition. [Related pubchem assays: 1416 ]; assay type: functional
T8 sequence (Q9NZJ5 whole entry): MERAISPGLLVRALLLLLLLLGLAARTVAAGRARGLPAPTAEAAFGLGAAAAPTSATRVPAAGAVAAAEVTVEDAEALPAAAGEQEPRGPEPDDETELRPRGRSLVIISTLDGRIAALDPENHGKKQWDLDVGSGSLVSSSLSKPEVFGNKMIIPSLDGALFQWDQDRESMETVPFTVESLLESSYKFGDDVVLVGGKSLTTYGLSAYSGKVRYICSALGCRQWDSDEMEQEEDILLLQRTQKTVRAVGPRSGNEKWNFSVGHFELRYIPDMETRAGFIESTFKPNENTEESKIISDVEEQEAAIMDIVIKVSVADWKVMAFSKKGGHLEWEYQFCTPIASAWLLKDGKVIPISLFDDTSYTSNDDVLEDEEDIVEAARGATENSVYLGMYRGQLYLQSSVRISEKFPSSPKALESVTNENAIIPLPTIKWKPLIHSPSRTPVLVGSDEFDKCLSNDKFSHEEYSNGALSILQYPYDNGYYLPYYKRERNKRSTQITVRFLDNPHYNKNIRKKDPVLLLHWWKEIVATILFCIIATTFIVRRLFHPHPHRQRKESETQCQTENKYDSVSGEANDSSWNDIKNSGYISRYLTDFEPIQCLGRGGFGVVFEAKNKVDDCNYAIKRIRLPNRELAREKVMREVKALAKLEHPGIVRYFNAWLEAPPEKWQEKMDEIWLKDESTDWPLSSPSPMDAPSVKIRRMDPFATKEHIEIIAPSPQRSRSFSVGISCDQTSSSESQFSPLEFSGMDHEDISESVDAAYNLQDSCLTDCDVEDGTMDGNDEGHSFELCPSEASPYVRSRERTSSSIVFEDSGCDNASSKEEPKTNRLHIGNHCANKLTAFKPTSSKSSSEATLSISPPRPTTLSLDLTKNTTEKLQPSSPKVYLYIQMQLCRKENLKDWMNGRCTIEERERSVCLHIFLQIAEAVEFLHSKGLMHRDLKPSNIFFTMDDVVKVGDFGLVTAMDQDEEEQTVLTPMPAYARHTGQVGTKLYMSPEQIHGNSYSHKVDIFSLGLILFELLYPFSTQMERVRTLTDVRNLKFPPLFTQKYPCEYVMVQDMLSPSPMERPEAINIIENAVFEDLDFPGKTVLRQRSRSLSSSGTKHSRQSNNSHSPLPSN

[25] = biological target: T8, Eukaryotic translation initiation factor 2-alpha kinase 3; assay: Counterscreen assay for PERK inhibitors: Dose response cell-based high throughput screening assay to measure inhibition of PERK at 6 hours. [Related pubchem assays: 1522, 1416 ]; assay type: functional
[26] = biological target: Lysosomal acid glucosylceramidase (Homo sapiens, UniProt P04062); assay: Dose response cell-based high throughput screening assay to identify enhancers of beta-glucosidase activity. [Related pubchem assays: 784 ]; assay type: functional
Lysosomal acid glucosylceramidase, sequence (P04062 whole entry): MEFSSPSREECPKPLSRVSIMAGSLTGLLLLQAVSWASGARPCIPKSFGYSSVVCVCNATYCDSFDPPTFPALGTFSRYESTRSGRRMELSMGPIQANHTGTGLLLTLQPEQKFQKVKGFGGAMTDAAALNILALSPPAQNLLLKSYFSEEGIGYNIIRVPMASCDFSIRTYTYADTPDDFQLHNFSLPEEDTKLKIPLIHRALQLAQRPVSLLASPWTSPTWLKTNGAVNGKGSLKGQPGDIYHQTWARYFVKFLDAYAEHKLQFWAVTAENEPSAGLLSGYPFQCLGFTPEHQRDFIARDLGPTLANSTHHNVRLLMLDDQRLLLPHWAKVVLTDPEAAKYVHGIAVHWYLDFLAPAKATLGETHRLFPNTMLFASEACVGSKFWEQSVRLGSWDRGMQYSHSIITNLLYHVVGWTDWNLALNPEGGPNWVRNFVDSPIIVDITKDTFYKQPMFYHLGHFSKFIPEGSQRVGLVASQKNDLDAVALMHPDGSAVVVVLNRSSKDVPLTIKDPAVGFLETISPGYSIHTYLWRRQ

[27] = biological target: X-box-binding protein 1 (Homo sapiens, UniProt P17861); assay type: functional, Cricetulus griseus;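 further: confirmatory dose-response counter-screen serving a CHOP assay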
X-box-binding protein 1, sequence (P17861 whole entry): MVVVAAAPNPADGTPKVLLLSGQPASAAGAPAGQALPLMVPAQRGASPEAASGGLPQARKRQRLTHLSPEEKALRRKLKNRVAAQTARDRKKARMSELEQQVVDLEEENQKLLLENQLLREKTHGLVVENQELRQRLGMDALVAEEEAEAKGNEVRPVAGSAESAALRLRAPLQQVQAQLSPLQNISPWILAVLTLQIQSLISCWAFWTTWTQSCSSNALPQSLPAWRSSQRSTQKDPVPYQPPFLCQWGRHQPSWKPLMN

T1 sequence (Q92731 whole entry): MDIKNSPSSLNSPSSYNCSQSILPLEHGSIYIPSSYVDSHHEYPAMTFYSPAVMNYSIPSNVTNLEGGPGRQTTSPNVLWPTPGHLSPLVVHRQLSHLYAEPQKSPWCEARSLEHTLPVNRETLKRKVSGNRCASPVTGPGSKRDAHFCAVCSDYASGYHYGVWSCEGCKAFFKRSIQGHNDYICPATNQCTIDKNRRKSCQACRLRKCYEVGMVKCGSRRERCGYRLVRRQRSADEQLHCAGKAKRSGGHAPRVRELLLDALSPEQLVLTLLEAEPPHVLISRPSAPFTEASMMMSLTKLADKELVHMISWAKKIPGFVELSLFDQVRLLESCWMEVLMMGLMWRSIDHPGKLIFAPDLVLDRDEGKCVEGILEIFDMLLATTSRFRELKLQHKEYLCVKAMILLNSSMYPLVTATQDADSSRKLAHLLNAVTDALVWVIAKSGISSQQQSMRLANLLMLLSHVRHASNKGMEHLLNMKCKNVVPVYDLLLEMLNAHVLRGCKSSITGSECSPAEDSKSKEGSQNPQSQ

With `COc1ccc2c(c1)c(=O)oc1cc(OCC(=O)NC3CCCCC3)ccc12` the IC50 [1] was 7.51 µM (active), the IC50 [2] was 17.9 µM (active) and the IC50 [3] was 34.6 µM (active). The IC50 [4] was 6.74 µM (active) and the IC50 [5] was > 50 µM (not active).
For `O=[N+]([O-])c1cc(-c2ncccn2)c([N+](=O)[O-])s1`, the CC50 [6] was 23.2 µM (active), the IC50 [7] was 6.92 µM (active) and the IC50 [8] was 24 µM (inactive). For the same compound, the IC50 [9] was 7.48 µM (active), the EC50 [10] was 6.64 µM (active) and the IC50 [11] was 8.96 µM (active). The IC50 [12] was > 66.6 µM (inactive).
With `COc1cccc(NC(=O)N(CCN(C)C)C(C)c2cccnc2)c1` (configuration not stated) the AC50 [13] was 123 µM (active).
With `CC1CCN(c2nc3ccc(C(=O)O)cc3s2)CC1` the IC50 [14] was 1.82 µM (active), the EC50 [15] was > 8 µM (not active) and the EC50 [16] was 0.268 µM (active). For the same compound, the IC50 [17] was > 80 µM (inactive), the AC50 [18] was 1.25 µM (active) and the EC50 [19] was 12.5 µM (not active). The EC50 [20] was 7.86 µM (active), the EC50 [21] was 13.1 µM (inactive) and the EC50 [22] was > 50 µM (not active).
With `Cc1cccc(C)c1NC(=O)C[N+](C)(C)CC(O)COc1cccc2ccccc12` (configuration not stated) the CC50 [23] was 22 µM (active).
In the case of `O=C(N/N=C/c1ccncc1)c1ccccc1`, the EC50 [24] is reported as > 55.7 µM (not active) and the EC50 [25] is reported as > 55.7 µM (not active).
For `Cc1nc(SCC(=O)Nc2ccc3c(c2)OCCO3)c2oc3ccccc3c2n1`, the EC50 [26] was > 50 µM (not active).
For `Cc1cccc(/C=C/c2nc(O)c3ccccc3n2)c1`, the “Absolute IC50 (XBP1)” value [27] was 10 µM.
